# Test results taken from US8778984B2, “Aldosterone synthase inhibitor” (Eli Lilly and Company, priority 2011, dated 2014).
# Key:
# human cyp11B2 = target: T1, human cyp11B2 (Homo sapiens, UniProt P19099); assay: Aldosterone Synthase Inhibitor Assay (V79-hcyp11B2 cells, aldosterone by LC-MS); assay type: cell-based; conditions: aldosterone production from 1 μM DOC, 24 hours incubation, geometric means, separate experiments
# T1 construct: expressed in transfected cells
# T1 sequence (P19099 25-503): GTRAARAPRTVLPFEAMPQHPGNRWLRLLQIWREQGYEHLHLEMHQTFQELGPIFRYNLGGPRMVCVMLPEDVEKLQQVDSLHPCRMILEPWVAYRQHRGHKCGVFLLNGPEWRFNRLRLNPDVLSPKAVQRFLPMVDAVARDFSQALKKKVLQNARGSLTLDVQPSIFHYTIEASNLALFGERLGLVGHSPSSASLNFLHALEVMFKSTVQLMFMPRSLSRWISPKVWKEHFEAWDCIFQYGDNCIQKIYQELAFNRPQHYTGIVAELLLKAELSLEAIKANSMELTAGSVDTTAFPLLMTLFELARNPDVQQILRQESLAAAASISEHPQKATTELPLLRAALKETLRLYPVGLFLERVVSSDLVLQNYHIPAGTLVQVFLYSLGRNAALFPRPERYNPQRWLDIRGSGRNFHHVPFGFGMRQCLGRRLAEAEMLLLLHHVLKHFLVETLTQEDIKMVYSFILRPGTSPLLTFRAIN
# Experimental: Chinese hamster fibroblast cells (V79, ATCC™) constitutively expressing human cyp11B2 are established by transfection with a mammalian expression vector harboring the human cyp11B2 cDNA under CMV promoter and a neomycin antibiotic resistant gene for selection in mammalian cells. V79 cells are transfected in T225 cm^2 flasks with the lipofectamine transfection reagent and the human cyp11B2 cDNA. Positive clones are selected with the selection antibiotic geneticin at 1 mg/mL.
# Aldosterone production from transfected cells is initiated by the addition of 1 μM DOC in the medium. After 24 hours incubation, 100 μL cell culture medium is collected and aldosterone concentration in the medium is determined using a liquid chromatography-mass spectrometry (LC-MS) method. […] The wells are then extracted 3× with EtOAc (150 μl) using the FX, combining the organic layers in a new 96-well plate. The solvent is dried in a GeneVac HT-4 or under nitrogen. […] A 25 μl aliquot of the sample is injected and a gradient from 20-100% ACN+0.1% formic acid (FA) in 1 min is initiated. Aldosterone elutes at 0.7 min. Starting conditions are held for 1 minute to re-equilibrate the column. An ABI 4000 tandem mass spectrometer is used for MS/MS analysis in the negative ion mode. […] The area under the peak from each transition is added together to comprise the signal from aldosterone and IS, respectively. […] The detection limit for aldosterone is […].
# DOC and various concentrations of test compounds in 1:3 dilution increments are added to the cell culture medium. After 24 hours incubation, 100 μl of cell medium are collected and aldosterone concentration determined as described above. Data are fit to a 4 parameter-fit logistics curve to determine IC50 values.
# [1] = target: cynomolgus monkey cyp11B1 (Macaca fascicularis, UniProt A0A2K5ULY1); assay: Cynomolgus Monkey Cortisol Inhibition Assay; assay type: cell-based; conditions: V79 cells expressing cynomolgus monkey cyp11B1; n=1; read-out: relative IC50, cynomolgus monkey cortisol inhibition assay
# Experimental: Chinese hamster fibroblast cells (V79) constitutively expressing cynomolgus monkey cyp11B1 is established by transfection with a mammalian expression vector harboring the cynomolgus monkey cyp11B1 cDNA. This cell line was used to measure the activity of compounds in inhibiting […] from cynomolgus monkey enzyme. Cell culture condition and cortisol detection method is performed following the same protocol described in the “cortisol inhibition assay”.
# [2] = system: aldosterone production in rats; assay: Inhibition of Aldosterone Synthase in Rats (rat sodium-deficiency diet model); assay type: in vivo; conditions: for % Inhibition 3 hrs / % Inhibition 6 hrs: inhibition of aldosterone vs vehicle; for % Inhibition 3 hrs / Aldosterone (pg/mL) 3 hrs: 3 hrs post oral dose; for % Inhibition 3 hrs / % Inhibition 6 hrs / Aldosterone (pg/mL) 3 hrs / Aldosterone (pg/mL) 6 hrs: Example 1 10.0 mg/kg, Example 49 30.0 mg/kg, Fadrozole 1.0 mg/kg; for % Inhibition 6 hrs / Aldosterone (pg/mL) 6 hrs: 6 hrs post oral dose; for effect on aldosterone production in vivo (in words) / Aldosterone (pg/mL) 3 hrs / Aldosterone (pg/mL) 6 hrs: rat Na-deficient diet model; for effect on aldosterone production in vivo (in words): summary of Table 18; for Aldosterone (pg/mL) 3 hrs / Aldosterone (pg/mL) 6 hrs: serum
# Experimental: The effect of compounds on aldosterone production in rats is assessed using the rat sodium-deficiency diet model. […] At 3 hours post dose rats are bled (˜0.5 mL) from the ocular orbit under isoflurane anesthesia. At 6 hours post-dose the rats are euthanized with CO2 and bled by cardiac puncture. Blood samples are clotted at least 30 minutes and serum is prepared and stored at approximately −80° C. until assayed. Aldosterone, steroids, and compound exposure are analyzed by mass spectroscopy.
# cynomolgus monkey cyp11B1, sequence (A0A2K5ULY1 entry or part of it): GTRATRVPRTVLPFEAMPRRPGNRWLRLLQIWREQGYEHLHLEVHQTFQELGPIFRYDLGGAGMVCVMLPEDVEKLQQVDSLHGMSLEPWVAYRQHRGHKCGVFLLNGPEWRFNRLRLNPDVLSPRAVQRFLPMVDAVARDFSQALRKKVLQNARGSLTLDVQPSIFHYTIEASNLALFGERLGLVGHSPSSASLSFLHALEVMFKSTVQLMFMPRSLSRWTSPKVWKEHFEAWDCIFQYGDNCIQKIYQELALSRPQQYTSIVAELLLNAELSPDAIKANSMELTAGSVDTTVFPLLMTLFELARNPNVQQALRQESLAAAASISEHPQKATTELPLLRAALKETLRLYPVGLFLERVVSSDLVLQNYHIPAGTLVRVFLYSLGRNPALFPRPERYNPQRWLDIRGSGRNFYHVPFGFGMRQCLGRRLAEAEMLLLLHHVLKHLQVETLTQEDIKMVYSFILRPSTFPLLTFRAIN
Structure (SMILES),IC50 (human cyp11B2) [nM],IC50 [1] [nM],% Inhibition 3 hrs [2] [%],% Inhibition 6 hrs [2] [%],effect on aldosterone production in vivo (in words) [2],Aldosterone (pg/mL) 3 hrs [2] [pg/mL],Aldosterone (pg/mL) 6 hrs [2] [pg/mL]
"CC1(C)C[C@H](c2ccc(C#N)cc2)c2cn[nH]c21 (single isomer, unassigned) [Example 1]",5,209,48,46,inhibit aldosterone production in vivo,973,1380
"CC1(C)CC(c2ccc(C#N)cc2F)c2cn[nH]c21 (single isomer, unassigned; isomer 1) [Example 49, 4-(6,6-Dimethyl-4,5-dihydro-1H-cyclopenta[c]pyrazol-4-yl)-3-fluoro-benzonitrile, isomer 1]",7,579,46,33,inhibit aldosterone production in vivo,1008,1704
